Laboratory results: PubChem BioAssay (NCI)
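Assay format: 96-well plates, 48-hour exposure. Abbreviation: GI50, concentration required for 50% inhibition of growth. TGI is the concentration that stops growth completely.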

Tests used:
Test in all cases: NCI anticancer screen, dose series, 48 h
EKVX NSCLC = system: EKVX NSCLC
HOP-62 NSCLC = system: HOP-62 NSCLC
UO-31 renal = system: UO-31 renal
IGROV1 ovarian = system: IGROV1 ovarian
TK-10 renal = system: TK-10 renal
RPMI-8226 leukemia = system: RPMI-8226 leukemia
CAKI-1 renal = system: CAKI-1 renal
HL-60(TB) leukemia = system: HL-60(TB) leukemia
SK-MEL-2 melanoma = system: SK-MEL-2 melanoma
A498 renal = system: A498 renal
MDA-MB-231 breast = system: MDA-MB-231 breast
PC-3 prostate = system: PC-3 prostate
MOLT-4 leukemia = system: MOLT-4 leukemia
KM12 colon = system: KM12 colon
MCF7 breast = system: MCF7 breast
SK-OV-3 ovarian = system: SK-OV-3 ovarian
HCT-15 colon = system: HCT-15 colon
NCI-H23 lung = system: NCI-H23 lung
SW-620 colon = system: SW-620 colon
MDA-MB-435 = system: MDA-MB-435
OVCAR-5 ovarian = system: OVCAR-5 ovarian
NCI-H226 lung = system: NCI-H226 lung
HCT-116 colon = system: HCT-116 colon
SF-268 CNS = system: SF-268 CNS
OVCAR-3 ovarian = system: OVCAR-3 ovarian
SF-539 CNS = system: SF-539 CNS
ACHN renal = system: ACHN renal
LOX IMVI melanoma = system: LOX IMVI melanoma
T-47D breast = system: T-47D breast
SN12C renal = system: SN12C renal
SK-MEL-28 melanoma = system: SK-MEL-28 melanoma
A549 NSCLC = system: A549 NSCLC
SNB-19 CNS = system: SNB-19 CNS
HCC-2998 colon = system: HCC-2998 colon
SK-MEL-5 melanoma = system: SK-MEL-5 melanoma
M14 melanoma = system: M14 melanoma
NCI/ADR-RES ovarian = system: NCI/ADR-RES ovarian
HT29 colon = system: HT29 colon
UACC-257 melanoma = system: UACC-257 melanoma
786-0 renal = system: 786-0 renal
U251 CNS = system: U251 CNS
OVCAR-4 ovarian = system: OVCAR-4 ovarian
SF-295 CNS = system: SF-295 CNS
DU-145 prostate = system: DU-145 prostate
HS 578T breast = system: HS 578T breast
UACC-62 melanoma = system: UACC-62 melanoma
SNB-75 CNS = system: SNB-75 CNS
HOP-92 NSCLC = system: HOP-92 NSCLC
SR leukemia = system: SR leukemia
NCI-H460 lung = system: NCI-H460 lung
CCRF-CEM leukemia = system: CCRF-CEM leukemia
K-562 leukemia = system: K-562 leukemia
COLO 205 colon = system: COLO 205 colon
OVCAR-8 ovarian = system: OVCAR-8 ovarian
BT-549 breast = system: BT-549 breast
MALME-3M melanoma = system: MALME-3M melanoma
NCI-H522 lung = system: NCI-H522 lung

`Cn1ncc2ncc(-c3ccc4ncc(C#N)c(N5CCc6cc(F)c(Cl)cc65)c4c3)cc21` was tested. Which GI50 (EKVX NSCLC) did it give?
The GI50 was 2.35 µM.

What about the TGI (EKVX NSCLC) of the same compound?
The TGI was 14.6 µM.

And the GI50 (HOP-62 NSCLC)?
The GI50 was 2.74 µM.

What about the TGI (HOP-62 NSCLC) of the same compound?
The TGI was over 100 µM.

What about the GI50 (UO-31 renal) of the same compound?
Its GI50 is 0.251 µM.

What about the TGI (UO-31 renal) of the same compound?
The TGI was 10.5 µM.

And the GI50 (IGROV1 ovarian)?
Its GI50 is 1.22 µM.

What about the TGI (IGROV1 ovarian) of the same compound?
The TGI was 4.61 µM.

And the GI50 (TK-10 renal)?
Its GI50 is 9.02 µM.

What about the TGI (TK-10 renal) of the same compound?
The TGI was over 100 µM.

And the GI50 (RPMI-8226 leukemia)?
Its GI50 is 3.28 µM.

And the TGI (RPMI-8226 leukemia)?
Its TGI is over 100 µM.

And the GI50 (CAKI-1 renal)?
The GI50 was 2.31 µM.

And the TGI (CAKI-1 renal)?
Its TGI is 79 µM.

What about the GI50 (HL-60(TB) leukemia) of the same compound?
The GI50 was 7.84 µM.

What about the TGI (HL-60(TB) leukemia) of the same compound?
Its TGI is over 100 µM.

And the GI50 (SK-MEL-2 melanoma)?
Its GI50 is 5.65 µM.

And the TGI (SK-MEL-2 melanoma)?
The TGI was 37.7 µM.

And the GI50 (A498 renal)?
The GI50 was 2.61 µM.

What about the TGI (A498 renal) of the same compound?
The TGI was 7.7 µM.

What about the GI50 (MDA-MB-231 breast) of the same compound?
Its GI50 is 2.6 µM.

And the TGI (MDA-MB-231 breast)?
Its TGI is 28.1 µM.

And the GI50 (PC-3 prostate)?
The GI50 was 2.27 µM.

What about the TGI (PC-3 prostate) of the same compound?
The TGI was over 100 µM.

What about the GI50 (MOLT-4 leukemia) of the same compound?
The GI50 was 3.01 µM.

What about the TGI (MOLT-4 leukemia) of the same compound?
Its TGI is over 100 µM.

And the GI50 (KM12 colon)?
Its GI50 is 5.35 µM.

What about the TGI (KM12 colon) of the same compound?
The TGI was over 100 µM.

And the GI50 (MCF7 breast)?
The GI50 was 2.44 µM.

And the TGI (MCF7 breast)?
Its TGI is over 100 µM.

What about the GI50 (SK-OV-3 ovarian) of the same compound?
The GI50 was 2.71 µM.

What about the TGI (SK-OV-3 ovarian) of the same compound?
Its TGI is over 100 µM.

What about the GI50 (HCT-15 colon) of the same compound?
Its GI50 is 3.49 µM.

And the TGI (HCT-15 colon)?
The TGI was over 100 µM.

And the GI50 (NCI-H23 lung)?
Its GI50 is 4.8 µM.

What about the TGI (NCI-H23 lung) of the same compound?
The TGI was over 100 µM.

What about the GI50 (SW-620 colon) of the same compound?
Its GI50 is 7.04 µM.

What about the TGI (SW-620 colon) of the same compound?
Its TGI is over 100 µM.

And the GI50 (MDA-MB-435)?
Its GI50 is 3.13 µM.

What about the TGI (MDA-MB-435) of the same compound?
The TGI was 11.8 µM.

What about the GI50 (OVCAR-5 ovarian) of the same compound?
Its GI50 is 3.71 µM.

What about the TGI (OVCAR-5 ovarian) of the same compound?
The TGI was over 100 µM.

And the GI50 (NCI-H226 lung)?
Its GI50 is 1.86 µM.

And the TGI (NCI-H226 lung)?
The TGI was 20.9 µM.

What about the GI50 (HCT-116 colon) of the same compound?
Its GI50 is 9.79 µM.

What about the TGI (HCT-116 colon) of the same compound?
The TGI was over 100 µM.

What about the GI50 (SF-268 CNS) of the same compound?
The GI50 was 4.11 µM.

What about the TGI (SF-268 CNS) of the same compound?
Its TGI is over 100 µM.

And the GI50 (OVCAR-3 ovarian)?
Its GI50 is 2.66 µM.

What about the TGI (OVCAR-3 ovarian) of the same compound?
The TGI was 83.6 µM.

And the GI50 (SF-539 CNS)?
Its GI50 is 3.78 µM.

What about the TGI (SF-539 CNS) of the same compound?
Its TGI is 61.7 µM.

And the GI50 (ACHN renal)?
Its GI50 is 2.49 µM.

And the TGI (ACHN renal)?
The TGI was over 100 µM.

And the GI50 (LOX IMVI melanoma)?
The GI50 was 2.26 µM.

What about the TGI (LOX IMVI melanoma) of the same compound?
Its TGI is 38.4 µM.

And the GI50 (T-47D breast)?
The GI50 was 2.03 µM.

What about the TGI (T-47D breast) of the same compound?
The TGI was 31.1 µM.

And the GI50 (SN12C renal)?
Its GI50 is 1.93 µM.

And the TGI (SN12C renal)?
The TGI was over 100 µM.

What about the GI50 (SK-MEL-28 melanoma) of the same compound?
Its GI50 is 4.92 µM.

And the TGI (SK-MEL-28 melanoma)?
Its TGI is over 100 µM.

And the GI50 (A549 NSCLC)?
The GI50 was 4.05 µM.

And the TGI (A549 NSCLC)?
The TGI was over 100 µM.

What about the GI50 (SNB-19 CNS) of the same compound?
Its GI50 is 6.72 µM.

And the TGI (SNB-19 CNS)?
Its TGI is over 100 µM.

What about the GI50 (HCC-2998 colon) of the same compound?
Its GI50 is 3.26 µM.

What about the TGI (HCC-2998 colon) of the same compound?
Its TGI is over 100 µM.

And the GI50 (SK-MEL-5 melanoma)?
Its GI50 is 6.97 µM.

What about the TGI (SK-MEL-5 melanoma) of the same compound?
The TGI was 21.9 µM.

And the GI50 (M14 melanoma)?
Its GI50 is 6.02 µM.

What about the TGI (M14 melanoma) of the same compound?
Its TGI is over 100 µM.

What about the GI50 (NCI/ADR-RES ovarian) of the same compound?
Its GI50 is 3.27 µM.

And the TGI (NCI/ADR-RES ovarian)?
Its TGI is over 100 µM.

And the GI50 (HT29 colon)?
The GI50 was 3.82 µM.

And the TGI (HT29 colon)?
Its TGI is over 100 µM.

What about the GI50 (UACC-257 melanoma) of the same compound?
The GI50 was 9.46 µM.

And the TGI (UACC-257 melanoma)?
Its TGI is over 100 µM.

What about the GI50 (786-0 renal) of the same compound?
Its GI50 is 4.13 µM.

What about the TGI (786-0 renal) of the same compound?
Its TGI is over 100 µM.

And the GI50 (U251 CNS)?
The GI50 was 5.46 µM.

And the TGI (U251 CNS)?
Its TGI is over 100 µM.

And the GI50 (OVCAR-4 ovarian)?
Its GI50 is 2.64 µM.

And the TGI (OVCAR-4 ovarian)?
Its TGI is 31.5 µM.

And the GI50 (SF-295 CNS)?
Its GI50 is 2.57 µM.

And the TGI (SF-295 CNS)?
Its TGI is over 100 µM.

What about the GI50 (DU-145 prostate) of the same compound?
The GI50 was 4.05 µM.

And the TGI (DU-145 prostate)?
Its TGI is over 100 µM.

What about the GI50 (HS 578T breast) of the same compound?
The GI50 was 1.44 µM.

What about the TGI (HS 578T breast) of the same compound?
Its TGI is 5.41 µM.

And the GI50 (UACC-62 melanoma)?
The GI50 was 1.65 µM.

And the TGI (UACC-62 melanoma)?
The TGI was 11.7 µM.

And the GI50 (SNB-75 CNS)?
The GI50 was 0.769 µM.

What about the TGI (SNB-75 CNS) of the same compound?
Its TGI is 5.47 µM.

What about the GI50 (HOP-92 NSCLC) of the same compound?
Its GI50 is 2.27 µM.

What about the TGI (HOP-92 NSCLC) of the same compound?
The TGI was 8.75 µM.

What about the GI50 (SR leukemia) of the same compound?
Its GI50 is 3.67 µM.

And the TGI (SR leukemia)?
Its TGI is over 100 µM.

And the GI50 (NCI-H460 lung)?
The GI50 was 4.93 µM.

And the TGI (NCI-H460 lung)?
Its TGI is over 100 µM.

What about the GI50 (CCRF-CEM leukemia) of the same compound?
Its GI50 is 4.62 µM.

And the TGI (CCRF-CEM leukemia)?
Its TGI is over 100 µM.

What about the GI50 (K-562 leukemia) of the same compound?
Its GI50 is 4.73 µM.

And the TGI (K-562 leukemia)?
Its TGI is over 100 µM.

What about the GI50 (COLO 205 colon) of the same compound?
The GI50 was 5.8 µM.

And the TGI (COLO 205 colon)?
The TGI was over 100 µM.

And the GI50 (OVCAR-8 ovarian)?
Its GI50 is 4.47 µM.

What about the TGI (OVCAR-8 ovarian) of the same compound?
The TGI was over 100 µM.

And the GI50 (BT-549 breast)?
The GI50 was 3.75 µM.

And the TGI (BT-549 breast)?
Its TGI is 85.6 µM.

What about the GI50 (MALME-3M melanoma) of the same compound?
The GI50 was 2.14 µM.

What about the TGI (MALME-3M melanoma) of the same compound?
Its TGI is 14.9 µM.

What about the GI50 (NCI-H522 lung) of the same compound?
The GI50 was 3.28 µM.

What about the TGI (NCI-H522 lung) of the same compound?
The TGI was over 100 µM.
